Patent US20120088841A1, “COMPOSITION AND A METHOD OF TREATING CNS DISORDERS AND HYPERPIGMENTATION” (priority 2010, published 2012)
≈ marks a conversion by molar mass, not a printed value. Where “and” joins values, the source holds several entries; their conditions need not be identical. Identical values can stand only once. Like-named read-outs stand apart in the source and are kept apart here. Marks after values point to notes of the source that are not given here.

Legend:
[1] = ORAC value (comparative data); conditions: invitro; higher is better
Text: (§1) The results are as tabulated below in table 2.

[2] = system: TNF alpha; experiment: TNF alpha inhibition invitro (comparative data); assay type: cell-based; conditions: read-out: TNF alpha inhibition (IC50 μg/ml)
Text: as §1

[3] = system: CD3+ cell population; experiment: Flow cytometric evaluation of cell-surface marker CD3+ in peripheral blood lymphocytes; assay type: in vivo, rats
Method: (§2) The injection was repeated on day 3.
(§3) CD3 monoclonal antibody that reacts with the CD3 differentiation antigen expressed on MHC class I T cytotoxic cells as well as MHC class II T helper cells, was used for the determination of activated T cell populations in the blood and CD19 monoclonal antibody that reacts with CD19 antigen expressed on B cells was used for the estimation of B cell population. Tubes were incubated in dark for 30 min at room temperature. Subsequently, 2 ml of 1×FACS lyses solution was added at room temperature with gentle mixing and these samples were then spinned at (300-400×g). The supernatant was aspirated and samples were given 3 washings of phosphate buffer saline (pH 7.4). The resulting stained cell pellet was resuspended in 500 μl of phosphate buffer saline and was run on a flow cytometer. Acquisition and the analysis were done directly on flow cytometer using Cell Quest Pro software (BD Biosciences) (Bani et al., 2005, 2006).

[4] = system: ICV STZ treated rats; experiment: Single trial passive avoidance test after ICV injection of STZ; assay type: in vivo; conditions: for initial latency: day 19, ICV STZ rats; for mean retention latency: day 20, ICV STZ rats (STZ Control 173±28 s)
Method: as §2
Memory retention deficit was evaluated by a step through passive avoidance apparatus according to the method previously described by Mojard et al. (2007) on days 19th and 20th after 1st injection of STZ. On the acquisition trial, each rat was placed in the lighted chamber and after 60 s of habituation period, the guillotine door separating the lighted and dark chamber was opened, and the initial latency (IL) to enter the dark chamber was recorded. Immediately after the rat entered the dark chamber, the guillotine door was closed and an electric foot shock (75 V, 0.2 mA, 50 Hz) was delivered to the floor grids for 3 s. Five seconds later, the rat was removed from the dark chamber and returned to its home cage. Twenty-four hours later, the retention latency (RL) time was measured in the same way as in the acquisition trial, but foot shock was not delivered, and the latency time was recorded to a maximum of 600 s.

[5] = system: CD19+ cell population; experiment: Flow cytometric evaluation of cell-surface marker CD19+ in peripheral blood lymphocytes; assay type: in vivo, rats
Method: as §2, §3

[6] = system: Balb/C mice; conditions: mouse, in vivo, po, 1000 mg/kg
Method: Three female Balb/C mice, fasted 3-4 h prior to the test, were used for each step and observed individually after dosing at least once during the first 30 min, and periodically during the first 24 h, with special attention given during the first 4 h, and daily thereafter, for a total of 14 days.

[7] = system: Malondialdehyde (MDA); experiment: Measurement of lipid peroxidation (MDA) in brain of ICV STZ rats; conditions: for MDA (LP): brain homogenate, ICV STZ rats (STZ Control 415.21 ± 10.07)
[8] = system: B16F1 mouse melanoma cells; experiment: Inhibition of α-MSH induced melanogenesis in B16F1 mouse melanoma cell line; assay type: cell-based; conditions: B16-F1, 216 h, 0.6 nM MSH, 9 days treatment, read-out: Inhibition of MSH induced Melanin IC50
Method: Melanin synthesis can be directly studied in live animal cells. B16F1 mouse melanoma cells were seeded in a 6 well microtiter plate at a seeding density of 5000 cells per well in 2 ml DMEM medium per well. After 24 hours of incubation in a CO2 incubator, melanin production is induced by 0.6 nM […] by replacing the medium with medium containing […]. The cells were then treated with the compound hydroxychavicol, crude betel leaf extract and the reference standard over a period of 9 days with renewal of […] containing medium and sample at regular intervals of 3 days. Control wells were maintained without sample treatment and only with the vehicle used for sample preparation. After the incubation period, the medium was removed and the cells were scraped and washed in PBS. Thereafter, melanin was extracted by 1N NaOH in boiling water bath for 5 minutes. The absorbance of the melanin extract was read at 405 nm in a microplate reader. The inhibitory effect of the samples is calculated based on the decrease of melanin formation. The dose dependent inhibitory activity of samples is calculated and the results are expressed as IC50 values using Graphpad prism software.

[9] = system: Reduced glutathione (GSH); experiment: Estimation of reduced glutathione in brain of ICV STZ rats; assay type: in vivo; conditions: for GSH: brain homogenate, ICV STZ rats (STZ Control 223.21 ± 6.08)
Method: as §2
Reduced glutathione (GSH) in the brain was estimated according to the method described by Ellman (1959). 1 ml supernatant was precipitated with 1 ml of 4% sulfosalicylic acid and cold digested at 4° C. for 1 h. The samples were centrifuged at 1200×g for 15 min at 4° C. To 1 ml of this supernatant, 2.7 ml of phosphate buffer (0.1 M, pH 8) and 0.2 ml of 5,5′-dithiobis-(2-nitrobenzoic acid) (DTNB) were added. The yellow colour developed was read immediately at 412 nm using spectrophotometer. The results were calculated using the molar extinction coefficient of chromophore (1.36×104 M−1 cm−1) and expressed as a percentage of the control.

[10] = system: IFN-γ; experiment: Estimation of intracellular cytokine IFN-γ in CD3+ T cells; assay type: in vivo, rats
Method: as §2
Magnetic-bead Assisted Cell Sorting (MACS) separated the CD3+ T cells that were then permeabilised with 500 μl of FACS permeabilising solution (Becton Dickinson) for 10 min at room temperature. With this technique, specific cells that have antibody-coated micro beads are separated under a strong magnetic field magnetically from the whole cell suspension according to their cell-surface antigen. After centrifugation, cells were incubated with anti-rat IFN-γ-PE for 30 min in the dark at room temperature. After washing in PBS, cells were fixed in […] of 1% formaldehyde PBS. A total of 10,000-gated events were acquired in on a FACS BD LSR II flow cytometer (Bani et al., 2005, 2006) and analysis was done on flow cytometer using Cell Quest Pro software (BD Biosciences).

[11] = molecular target: Mushroom Tyrosinase enzyme; experiment: Tyrosinase inhibition; assay type: biochemical; conditions: 40 units Mushroom Tyrosinase, 0.7 mM L-Tyrosine disodium, 37° C.
Text: Pigmentation is a multistep process critically dependent on the functional integrity of tyrosinase, the rate-limiting enzyme in melanin synthesis. Biosynthesis of melanin is initiated by the catalytic oxidation of tyrosine to 3, 4 dihydroxy phenylalanine (dopa) by tyrosinase. Subsequent reactions happen spontaneously eventually resulting in the synthesis of melanin. Under in vitro conditions, tyrosinase enzyme acts on L-Tyrosine forming a pink colored complex. This pink color intensity formed during the reaction is quenched in the presence of the inhibitor. The assay is performed in a 96 well clear microtitre plate. The compound hydroxychavicol, crude betel leaf extract and the reference standard in suitable vehicle (PBS or 0.2% DMSO) is pre incubated with 40 units of Mushroom Tyrosinase enzyme at 37° C. for 10 minutes. The reaction is initiated by adding 0.7 mM L-Tyrosine disodium and the absorbance is read after 10 minutes of incubation at 37° C. in FluostarOptima microplate reader at 492 nm. The dose dependent inhibitory activity of samples is calculated and the results are expressed as IC50 values using Graphpad prism software.

## C=CCc1ccc(O)c(OC)c1 [Eugenol]
[1]
  ORAC value (μmol trolox equivalents/g): 13921 μmol trolox equivalents/g
[2]; invitro
  IC50: 114 µg/mL (≈ 694 µM)

## CC=Cc1ccc(O)c(OC)c1 [Isoeugenol]
[1]
  ORAC value (μmol trolox equivalents/g): 15248 μmol trolox equivalents/g
[2]; invitro
  IC50: 515 µg/mL (≈ 3140 µM)

## C=CCc1ccc(O)c(O)c1 [HC, Hydroxychavicol]
[3]; HC 0.5 mg/kg p.o. (STZ Control 62.21±4.65%)
  mean percentage of CD3+ cells in the lymphocyte population: 51.19±1.78%
[3]; HC 2 mg/kg p.o. (STZ Control 62.21±4.65%)
  mean percentage of CD3+ cells in the lymphocyte population: 45.28±3.43%
[3]; HC 4 mg/kg p.o. (STZ Control 62.21±4.65%)
  mean percentage of CD3+ cells in the lymphocyte population: 44.49±4.55%
[4]; HC 0.5 mg/kg p.o.
  initial latency: 12.21 ± 1.42 s
[4]; HC 1 mg/kg p.o.
  initial latency: 17.33 ± 2.6 s
  mean retention latency: 291.87 ± 25.66 s
[4]; HC 2 mg/kg p.o.
  initial latency: 15.92 ± 1.09 s
  mean retention latency: 301.09 ± 13.67 s
[4]; HC 4 mg/kg p.o.
  initial latency: 18.21 ± 2.96 s
[5]; HC 0.5 mg/kg p.o. (STZ Control 27.08±2.77%)
  mean percentage of CD19+ cells in the lymphocyte population: 21.43±1.39%
[5]; HC 1 mg/kg p.o. (STZ Control 27.08±2.77%)
  mean percentage of CD19+ cells in the lymphocyte population: 17.08±2.09%
[5]; HC 2 mg/kg p.o. (STZ Control 27.08±2.77%)
  mean percentage of CD19+ cells in the lymphocyte population: 16.97±1.88%
[5]; HC 4 mg/kg p.o. (STZ Control 27.08±2.77%)
  mean percentage of CD19+ cells in the lymphocyte population: 16.01±1.07%
[6]
  untoward symptom or mortality, general behaviour: No untoward symptom or any mortality
[7]; HC 0.5 mg/kg p.o.
  MDA (LP) percentage activity against STZ Control group (suppression): (27.47↓)* %
  MDA (LP): 301.15 ± 6.34 nmol/mg
[7]; HC 1.0 mg/kg p.o.
  MDA (LP) percentage activity against STZ Control group (suppression): (39.26↓)* %
  MDA (LP): 252.18 ± 4.08 nmol/mg
[7]; HC 2.0 mg/kg p.o.
  MDA (LP) percentage activity against STZ Control group (suppression): (42.87↓)* %
  MDA (LP): 237.19 ± 3.44 nmol/mg
[7]; HC 4.0 mg/kg p.o.
  MDA (LP) percentage activity against STZ Control group (suppression): (46.85↓)* %
  MDA (LP): 220.68 ± 4.32 nmol/mg
[8]
  IC50: 1.3 µg/mL (≈ 8.66 µM)
[9]; HC 0.5 mg/kg p.o.
  GSH percentage activity against STZ Control group (stimulation): (61.03↑)* %
  GSH: 359.44 ± 5.47 µg/g
[9]; HC 1.0 mg/kg p.o.
  GSH percentage activity against STZ Control group (stimulation): (62.52↑)* %
  GSH: 362.78 ± 6.24 µg/g
[9]; HC 2.0 mg/kg p.o.
  GSH percentage activity against STZ Control group (stimulation): (66.52↑)* %
  GSH: 371.69 ± 6.17 µg/g and 371.69 ± 6.117 µg/g
[9]; HC 4.0 mg/kg p.o.
  GSH percentage activity against STZ Control group (stimulation): (67.04↑)* %
  GSH: 372.87 ± 3.18 µg/g
[10]; HC 2 mg/kg p.o. (STZ Control 18.18±0.97%)
  expression of IFN-γ in CD3+ T cells: 12.08±0.21%
[10]; HC 4 mg/kg p.o. (STZ Control 18.18±0.97%)
  expression of IFN-γ in CD3+ T cells: 11.91±0.87%
[2]
  IC50: 88.7 µg/mL (≈ 590 µM)

## O=C1O[C@H]([C@@H](O)CO)C(O)=C1O [Ascorbic acid, reference compound]
[11]
  Tyrosinase inhibition IC50: IC50—9.33 μg/ml
[8]
  IC50: 25 µg/mL (≈ 142 µM)
